Measured values as given in ChEMBL document CHEMBL4342405, “Clinical candidates modulating protein-protein interactions: The fragment-based experience” (Eur J Med Chem, 2019).
Values belong to the compound of their own block, whether it stands above or below them.

Tests used:
[1] = biological target: T1, Bcl-2-like protein 1 (Homo sapiens, UniProt Q07817); test: Inhibition of BCL-XL (unknown origin) incubated for 15 mins by fluorescence polarization assay
[2] = biological target: T1, Bcl-2-like protein 1; test: Binding affinity to BCL-XL (unknown origin) by 15N HSQC NMR analysis
[3] = Toxicity in mouse xenografted with human haematological tumor at 12.5 mg/kg, po; format: organism-based
[4] = biological target: T2, Bcl-2-like protein 2 (Homo sapiens, UniProt Q92843); test: Inhibition of BCL-W (unknown origin) by fluorescence polarization assay
T2 sequence (Q92843 whole entry): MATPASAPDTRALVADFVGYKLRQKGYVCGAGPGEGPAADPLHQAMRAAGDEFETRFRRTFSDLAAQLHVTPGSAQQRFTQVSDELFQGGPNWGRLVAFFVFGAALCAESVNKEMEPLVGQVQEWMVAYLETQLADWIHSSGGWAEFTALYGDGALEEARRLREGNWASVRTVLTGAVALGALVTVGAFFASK

[5] = Half life in rat; format: ADME; settings: in vivo
[6] = Oral bioavailability in mouse; format: ADME, organism-based; settings: in vivo
[7] = Half life in monkey; format: ADME, Macaca mulatta; settings: rhesus monkey, in vivo
[8] = Oral bioavailability in monkey; format: ADME, organism-based, Macaca mulatta; settings: rhesus monkey, in vivo
[9] = Half life in dog; format: ADME, Canis lupus familiaris; settings: in vivo
[10] = Oral bioavailability in rat; format: ADME, organism-based; settings: in vivo
[11] = Half life in mouse; format: ADME, organism-based; settings: in vivo
[12] = Oral bioavailability in dog; format: ADME, organism-based, Canis lupus familiaris; settings: in vivo
[13] = Half life in human; format: ADME

T1 sequence (Q07817 whole entry): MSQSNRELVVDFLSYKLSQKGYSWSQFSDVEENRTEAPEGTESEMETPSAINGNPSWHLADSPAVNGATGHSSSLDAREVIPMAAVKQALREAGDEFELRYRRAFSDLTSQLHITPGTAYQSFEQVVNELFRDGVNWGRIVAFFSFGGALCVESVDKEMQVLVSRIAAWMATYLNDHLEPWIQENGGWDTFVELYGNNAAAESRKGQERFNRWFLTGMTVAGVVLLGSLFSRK

Compound: Oc1ccc(-c2ccccc2)cc1
Kd [2]: 6000 µM

Compound: CC1(C)CCC(CN2CCN(c3ccc(C(=O)NS(=O)(=O)c4ccc(NCC5CCOCC5)c([N+](=O)[O-])c4)c(Oc4cnc5[nH]ccc5c4)c3)CC2)=C(c2ccc(Cl)cc2)C1 [VENETOCLAX]
EC50 [3]: 5.5 µM

Compound: CN(C)CC[C@H](CSc1ccccc1)Nc1ccc(S(=O)(=O)NC(=O)c2ccc(N3CCN(Cc4ccccc4-c4ccc(Cl)cc4)CC3)cc2)cc1[N+](=O)[O-] [ABT 737]
half-life [5]: 4 to 6.4 h
bioavailability [6]: 20%
half-life [7]: 4 to 6.4 h
bioavailability [8]: 20%
half-life [9]: 4 to 6.4 h
bioavailability [10]: 20%
half-life [11]: 4 to 6.4 h
bioavailability [12]: 20%

The next lines start with results.

Ki [1]: 1.4 µM
Compound: O=C(O)c1ccc(-c2ccc(F)cc2)cc1/C=C/c1cccc(-c2ccccc2)c1

Ki [4]: 0.245 µM
Compound: CC1(C)CCC(c2ccc(Cl)cc2)=C(CN2CCN(c3ccc(C(=O)NS(=O)(=O)c4ccc(N[C@H](CCN5CCOCC5)CSc5ccccc5)c(S(=O)(=O)C(F)(F)F)c4)cc3)CC2)C1 [NAVITOCLAX]
EC50 [3]: 0.083 µM

half-life [13]: 25 h
Compound: CCS(=O)(=O)Nc1ccc(Oc2ccc(F)cc2F)c(-c2cn(C)c(=O)c3[nH]ccc23)c1 [MIVEBRESIB]
